Data from US20250281481A1, “NALTREXONE FOR BOOSTING THE THERAPEUTIC UTILTY OF 5-HT RECEPTOR AGONISTS” (LDN Pharma Limited, priority 2021, published 2025).

Experiments:
Assay type in all cases: cell-based, human
[1] = test system: 5-HT receptor 1E, mRNA (HTR1E); assay: Microarray gene expression in CD3+ lymphocytes, HTR1E; settings: 4 h, probe 1794095
Experimental: (§1) CD3+ lymphocytes were isolated from the blood of haematologically normal volunteers. Cells placed into 25 cm^3 flasks at a concentration of 1×10^6/ml, and left to equilibrate in an incubator with a humidified atmosphere and 5% CO2 in air at 37° C. […] RNA extraction was performed using Trizol according to standard procedures, before being processed for microarray analysis according to the standard methodologies. Briefly, equal amounts of biotinylated cRNA was hybridised to the Illumina human HT12-v3 arrays for 18 h and subsequently processed according to manufacturer's instructions before scanning on an Illumina BeadArray Reader. The image data were processed using default values in GenomeStudio v2009.1 with imputation of missing data, before loading onto GeneSpring v9.0 for data normalisation and filtering. Data analyses were performed using Excel software, and the ratio of gene expression signals in treated vs. untreated calculated.

[2] = test system: 5-HT receptor 2B, mRNA (HTR2B); assay: Microarray gene expression in CD3+ lymphocytes, HTR2B; settings: 4 h, probe 1735764
Experimental: as §1

[3] = test system: 5-HT receptor 3A, transcript variant 2, mRNA (HTR3A); assay: Microarray gene expression in CD3+ lymphocytes, HTR3A transcript variant 2; settings: 4 h, probe 2371079
Experimental: as §1

[4] = test system: 5-HT receptor 3A, transcript variant 1, mRNA (HTR3A); assay: Microarray gene expression in CD3+ lymphocytes, HTR3A transcript variant 1; settings: naltrexone 10 nM, 4 h, probe 1681492
Experimental: as §1

[5] = test system: 5-HT receptor 4, transcript variant a, mRNA (HTR4); assay: Microarray gene expression in CD3+ lymphocytes, HTR4 transcript variant a; settings: 4 h, probe 1676350
Experimental: as §1

[6] = test system: 5-HT receptor 4, transcript variant hb, mRNA (HTR4); assay: Microarray gene expression in CD3+ lymphocytes, HTR4 transcript variant hb; settings: naltrexone 10 nM, 4 h, probe 1808258
Experimental: as §1

[7] = test system: mRNA for one or more of 5-HT receptor proteins; assay: Microarray gene expression in CD3+ lymphocytes, overall statement; settings: both higher dose and low dose naltrexone, 4 h
Experimental: as §1

O=C1CC[C@@]2(O)[C@H]3Cc4ccc(O)c5c4[C@@]2(CCN3CC2CC2)[C@H]1O5 [NTX, morphinan-6-one,17-(cyclopropylmethyl)-4,5-epoxy-3,14-dihydroxy-(5α)]
gene expression signal, LDN ([1]; naltrexone 10 nM): 101.20 | gene expression signal, NTX ([1]; naltrexone 10 uM): 95.70 | gene expression signal, LDN ([2]; naltrexone 10 nM): 147.45 | gene expression signal, NTX ([2]; naltrexone 10 uM): 177.95 | gene expression signal, LDN ([3]; naltrexone 10 nM): 124.70 | gene expression signal, NTX ([3]; naltrexone 10 uM): 151.75 | gene expression signal, LDN [4]: 94.00 | gene expression signal, LDN ([5]; naltrexone 10 nM): 100.20 | gene expression signal, NTX ([5]; naltrexone 10 uM): 96.10 | gene expression signal, LDN [6]: 93.50 | levels of mRNA for one or more of 5-HT receptor proteins [7]: increase the levels of mRNA
